According to PubChem BioAssay (NCI):
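In this assay, cells in 96-well plates receive the compound at five concentrations for 48 hours. Endpoints are linearly interpolated between the surrounding concentrations. GI50 is the concentration that inhibits growth by half. TGI marks complete inhibition of growth.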

Columns and labels:
Assay in all cases: NCI tumour cell line growth inhibition, 48 h
M14 melanoma = system: M14 melanoma
NCI-H226 lung = system: NCI-H226 lung
OVCAR-8 ovarian = system: OVCAR-8 ovarian
HCC-2998 colon = system: HCC-2998 colon
OVCAR-3 ovarian = system: OVCAR-3 ovarian
UACC-62 melanoma = system: UACC-62 melanoma
UACC-257 melanoma = system: UACC-257 melanoma
HOP-62 NSCLC = system: HOP-62 NSCLC
SK-MEL-2 melanoma = system: SK-MEL-2 melanoma
BT-549 breast = system: BT-549 breast
TK-10 renal = system: TK-10 renal

SMILES | TGI (M14 melanoma) [µM] | TGI (NCI-H226 lung) [µM] | TGI (OVCAR-8 ovarian) [µM] | TGI (HCC-2998 colon) [µM] | TGI (OVCAR-3 ovarian) [µM] | TGI (UACC-62 melanoma) [µM] | TGI (UACC-257 melanoma) [µM] | TGI (HOP-62 NSCLC) [µM] | TGI (SK-MEL-2 melanoma) [µM] | TGI (BT-549 breast) [µM] | TGI (TK-10 renal) [µM] | GI50 (OVCAR-3 ovarian) [µM]
Cc1[nH]c(=O)nc(NNCc2ccc(Cl)cc2)c1C(=O)Nc1ccc(Cl)cc1 | > 100 | > 100 | > 100 | > 100 | > 100 | > 100 | > 100 | > 100 | > 100 | > 100 | > 100 | –
COC(=O)CC1c2ccccc2N2C(=O)Cc3c([nH]c4ccccc34)C12 (stereo unspecified) | > 100 | > 100 | > 100 | > 100 | > 100 | > 100 | > 100 | > 100 | > 100 | > 100 | > 100 | –
COC(=O)/C=C1/OC(c2ccc(OC)cc2)=C(Cl)C1=O | 35.4 | 51.1 | 28.2 | 41.1 | 26.3 | 37.9 | 49.6 | 39.2 | 33.6 | 26.3 | 40.1 | –
CCOP(=O)(OCC)OC1c2[nH]cc(C(=O)OCc3ccccc3)c2-c2cc(C(=O)OC)[nH]c2C1OC (stereo unspecified) | > 100 | 58.3 | > 62.8 | > 78.9 | 54.8 | > 79.6 | > 35 | 36.3 | > 76.5 | 45.9 | > 39.9 | –
O=C(NNC(=O)c1csc(NC(=S)NC2CCCCC2)n1)c1ccccc1 | 35.4 | 49.5 | 59.2 | 32.2 | 16.4 | 23.9 | 27.8 | 32.5 | 45 | 46.5 | 85.6 | –
Cc1cccc(N/C(Sc2ccccc2)=C(/C(Cl)=C(Cl)Cl)[N+](=O)[O-])c1 | 36.7 | 35.2 | 29.6 | > 100 | 21.6 | 54.6 | 47.2 | 40.1 | > 100 | 41.8 | – | –
Cc1cnc2[nH]c(-c3ccc4ccccc4c3)cc(=O)c2c1 | > 100 | > 100 | > 100 | > 100 | 10.6 | > 100 | – | > 100 | > 100 | > 100 | > 100 | 0.352
BrCC[N+]12CC[N+](CCBr)(CC1)C2 | > 100 | > 100 | > 100 | > 100 | > 100 | > 100 | > 100 | > 100 | > 100 | > 100 | > 100 | –
O=C(OCCNC(=O)N1CC1)OCCNC(=O)N1CC1 | > 10 | > 10 | > 10 | > 10 | > 10 | > 10 | > 10 | > 10 | > 10 | > 10 | > 10 | –
C=C1C[C@H](O)[C@H](Br)C(C)(C)C12CCC(C)(Cl)C(Br)C2 (stereo partly specified) | 13.3 | 12.7 | 15.1 | 15.5 | 15.7 | 15.6 | 3.06 | 12.2 | 6.55 | 18.5 | 13.1 | –
COc1ccc(-c2c(C#N)c(S)n(NS(=O)(=O)c3ccccc3)c(=O)c2C#N)cc1 | > 100 | > 100 | > 100 | > 100 | > 100 | > 100 | > 100 | > 100 | > 100 | 46 | > 100 | –
ClCCCCCc1c2nc(c(CCCCCCl)c3ccc([nH]3)c(CCCCCCl)c3ccc([nH]3)c(CCCCCCl)c3nc1C=C3)C=C2 | > 100 | > 100 | > 100 | > 100 | > 100 | > 100 | > 100 | > 100 | > 100 | > 100 | > 100 | –
O=C1CC(=O)NC(=NNS(=O)(=O)c2ccc(Cl)cc2)N1 | > 100 | > 100 | > 100 | > 100 | > 100 | > 100 | > 100 | > 100 | > 100 | > 100 | > 100 | –
O=C(c1cc2c(c3ccccc13)NC1(CCCCC1)N=C2C(F)(F)F)C(F)(F)F | 18.1 | 11 | 15.8 | 10.4 | 7.81 | 13.6 | 11.3 | > 100 | 5.87 | 15.8 | 14 | –
CC1(C)N=C(C2CCCN2C(=O)OCc2ccccc2)OC1=O (stereo unspecified) | > 100 | > 100 | > 100 | > 100 | > 100 | > 100 | > 100 | > 100 | > 100 | > 100 | > 100 | –
CCN1CN(c2ccccc2)C2(CCN(CC(CC3OCCO3)c3ccc(F)cc3)CC2)C1=O (stereo unspecified) | 9.54 | 65 | > 100 | 46.1 | 50.7 | 47.1 | 13.8 | 12.1 | 46.8 | 53.2 | > 46.7 | –
O=C(N/N=C(/COc1ccccc1)N=Cc1cccnc1)c1ccncc1 | > 100 | > 100 | > 100 | > 100 | > 100 | > 100 | > 100 | > 100 | > 100 | > 100 | > 100 | –
CC(=O)OC(Cc1c(O)c2c(C)cccc2oc1=O)C(C)(C)O (stereo unspecified) | > 100 | > 100 | > 100 | > 100 | > 100 | > 100 | > 100 | > 100 | > 100 | > 100 | > 100 | –
CC(=O)N(C(C)=O)c1cc2c3c(c1)CCCN3CCC2 | > 10 | > 10 | > 10 | > 10 | > 10 | > 10 | > 10 | > 10 | > 10 | > 10 | > 10 | –

SMILES | TGI (M14 melanoma) [µM] | TGI (NCI-H226 lung) [µM] | TGI (OVCAR-8 ovarian) [µM] | TGI (HCC-2998 colon) [µM] | TGI (OVCAR-3 ovarian) [µM] | TGI (UACC-62 melanoma) [µM] | TGI (UACC-257 melanoma) [µM] | TGI (HOP-62 NSCLC) [µM] | TGI (SK-MEL-2 melanoma) [µM] | TGI (BT-549 breast) [µM] | TGI (TK-10 renal) [µM] | GI50 (OVCAR-3 ovarian) [µM]
CC(Cl)CC(=O)OCC1CCCN2CCCCC12 (stereo unspecified) | > 100 | > 100 | > 100 | > 100 | > 100 | > 100 | > 100 | > 100 | > 100 | > 100 | > 100 | –
CC1C(C#N)(C#N)C(C#N)=C(N)C1(Cl)[N+](=O)[O-] (stereo unspecified) | 22.1 | 31.6 | 28.7 | 31.8 | 22 | 24 | 24.5 | 9.72 | 58 | 26.3 | 28.2 | –
CCOc1ccc(N/C(=C(/C(Cl)=C(/Cl)NC(C)(C)C)[N+](=O)[O-])n2nnc3ccccc32)cc1 | > 100 | > 100 | 32.3 | > 100 | 72.2 | 65.3 | > 100 | > 100 | > 100 | 41.5 | – | –
O=CN1CCN(C(=O)c2ccc(Cl)c(Cl)c2)C1=S | 31.4 | 39.8 | 29.4 | 32.7 | 28.3 | 30.4 | 31.7 | 32.9 | 30.6 | 33.7 | 30.1 | –
CCOC(=O)c1c(NC(=S)Nc2ccccc2)sc2c1CCOC2 | > 100 | > 100 | > 100 | > 100 | > 100 | > 100 | > 100 | > 100 | > 100 | 58 | > 100 | –
COc1ccc(/C=C2\C[C@H]3[C@@H]4CCC5=CC(=O)CC[C@]5(C)[C@H]4CC[C@]3(C)C2=O)cc1OC | > 100 | > 100 | > 100 | > 100 | > 100 | > 100 | 68.4 | > 100 | 43.6 | > 100 | – | –
CN(C)c1ccc(C=C2C(=O)NC(=S)NC2=O)c2ccccc12 | > 100 | > 100 | 77 | > 100 | > 100 | > 100 | > 100 | > 100 | > 100 | > 100 | > 100 | –
COc1cccc(C2c3cc4c(cc3OC(Nc3ccccc3)C2C)OCO4)c1OC (stereo unspecified) | > 100 | 12.1 | 33.1 | > 100 | > 100 | > 100 | 97.3 | > 100 | > 100 | > 100 | > 100 | –
COc1ccc(-c2oc3c(OC)c(OC)cc(O)c3c(=O)c2OC)cc1 | > 100 | > 100 | > 100 | > 100 | > 100 | > 100 | > 100 | > 100 | > 100 | > 100 | > 100 | –
CCOC(=O)NN(C(=O)OCC)c1c(C)cc(C)cc1C | > 100 | > 100 | > 100 | > 100 | > 100 | > 100 | > 100 | – | > 100 | > 100 | > 100 | –
CN(C)Cc1cc(N=Nc2ccc(Cl)cc2)cc(CN(C)C)c1O | 37.6 | 17.7 | 12.7 | 23.6 | 6.78 | 30.2 | 31.5 | 14.6 | 27.8 | 23.8 | 21.3 | –
CC(C)Oc1c(-c2ccc(F)cc2)c(O)c2c3c1oc(=O)n3C=CC2C (stereo unspecified) | 28.5 | 26.9 | 30.6 | 26.2 | 27.9 | 29.4 | 26.3 | 28.6 | 53.3 | 28 | 30.7 | –
CC(=O)OC(C)(C)CCC(=O)[C@](C)(O)[C@H]1[C@H](O)C[C@@]2(C)[C@@H]3CCc4c(cc(OC5OC(CO)C(O)C(O)C5O)c(O)c4C)C3(C)C(=O)C[C@]12C (stereo partly specified) | > 100 | > 100 | > 100 | > 100 | > 100 | > 100 | > 100 | > 100 | > 100 | > 100 | > 100 | –
Fc1ccc(C(OCCN2CC3CCC(C2)N3CCCc2ccccc2)c2ccc(F)cc2)cc1 | 6.26 | 13.1 | 5.39 | 8.06 | 21.8 | 21.3 | 11.9 | 21.3 | 12 | 24.8 | 24 | –
CSc1nc2c(c(=O)[nH]1)N=C(c1ccccc1)CC(c1ccccc1)N2 (stereo unspecified) | > 100 | > 100 | > 100 | > 100 | > 100 | 57.1 | > 100 | > 100 | 76.7 | > 100 | – | –
CC1(C)[C@@H]2C[C@H]1c1cnc(-c3ccccn3)cc1C2CCCCC[C@@H]1c2cc(-c3ccccn3)ncc2[C@@H]2C[C@H]1C2(C)C (stereo partly specified) | > 22.1 | 7.53 | > 100 | > 100 | > 100 | > 34 | – | > 69.2 | > 88.6 | > 100 | > 100 | –
Cc1ccc(N/C(SCc2ccccc2)=C(\C(Cl)=C(Cl)Cl)[N+](=O)[O-])c(C)c1 | 34 | > 100 | 32.7 | > 100 | 40.2 | > 100 | > 100 | > 100 | > 100 | 36.5 | – | –
O=C1CC(NCc2ccccc2)c2c(Cl)sc(Cl)c21 (stereo unspecified) | > 63.6 | > 63.5 | 48.5 | 35.7 | 47.3 | 24.3 | > 63 | > 88.1 | 51.5 | 69.8 | > 68.7 | –
CC[C@@]1(O)C(=O)OCc2c1cc1n(c2=O)Cc2c-1nc1ccccc1c2/C=N/NC(=O)c1ccc(N)cc1 | 1.23 | 0.528 | > 100 | > 69.9 | > 100 | 1.94 | > 100 | 1.61 | > 100 | > 100 | > 100 | –
